Measured values: patent publication US9238684B2, “SPANX-B polypeptides and their use” (The United States of America, as represented by the …, priority 2009, dated 2016)

What was measured:
[1] = system: SPANX-B-specific CD4^+ T cell lines; assay: IFNγ secretion (ELISA) by CD4+ T cell lines stimulated with antigen-pulsed autologous DCs; format: cell-based, human; settings: for IFNγ secretion by CD4+ T cell lines on stimulation with pulsed DCs: CD4+ T cell lines generated with SPANX-B protein-treated autologous DCs, FIGS. 3A-C; for IFNγ secretion by SPANX-B-specific CD4+ T cell line: irradiated mature DCs pulsed with 1 μg/ml peptide, FIG. 3A; for generation of SPANX-B-specific CD4+ T cell lines using the peptide: lines recognized DCs incubated with SPANX-B protein dose-dependently, FIGS. 3C, 3D
Experimental: T cell stimulation: To generate CD4^+ T cell lines, CD4^+ T cells (2×10^6) were stimulated with autologous DC pulsed with either SPANX-B protein (2 μg/mL), or with SPANX-B peptides (10 μg/mL) in the presence of IL-2 (20 U/mL) for seven days. T cells were re-stimulated once every week two times. To generate CD8^+ CTL lines, 2×10^6 CD8^+ T cells were stimulated with autologous DC pulsed with either SPANX-B protein (2 μg/mL) and SPANX-B peptides (10 μg/mL) in the presence of IL-2 (20 U/mL) and IL-15 (10 ng/mL) for seven days. T cells were weekly restimulated with peptide-loaded DCs for several times. To test antigen-specific activity of CD4^+ T cell lines, all experiments were performed in triplicates in 96-well plates with 1×10^5 CD4^+ T cells/well. […] T cell activity was judged by IFNγ secretion in culture supernatants by ELISA after 48 hours incubation (see below and Schiavo et al., Blood 107(12):4597-605, 2006). For most experiments, unless specified, 1:5 Target:Effector ratio was used.
Detection of IFNγ by ELISA: ELISA was performed as described elsewhere (Schiavo et al., Blood 107(12):4597-605, 2006). Briefly, 96-well flat-bottom plates were coated with 2 μg/mL of anti-human IFNγ antibody (BD pharmingen, San Jose, Calif.) to capture secreted IFNγ. The captured IFNγ was detected with 0.5 μg/mL biotin-conjugated mouse anti-human IFNγ antibody and streptavidin-HRP (BD pharmingen, San Jose, Calif.). The assay was visualized with TMB peroxidase solution B (KPL, Gaithersburg, Md.) and read at OD450.

[2] = system: murine anti-SPANX-B antibody; assay: ELISA on peptide-coated plates with murine anti-SPANX-B antibody; format: binding; settings: Ab from mice DNA immunized with SPANX-B-expressing plasmid; FIG. 1B
Experimental: FIGS. 1A-1F are digital images, a graph and a schematic diagram illustrating the specificity of antibody and expression of SPANX-B in human immortalized tumor cell lines. FIG. 1A is a digital image showing ANEA-I0117 antibody recognized SPANX-B expressed in mouse erythroleukemia RL5 cells. Western blotting results are shown with ANEA-I0117 anti-SPANX-B antibody on lysates of RL5 cells (2 μl, 5 μl and 10 μl, respectively) transiently transduced with plasmid expressing SPANX-B (SPANX-B). Control lysates were made from untransduced parental RL5 cells (Control). FIG. 1B is a graph showing murine anti-SPANX-B antibody, which was generated from mice DNA immunized with plasmid expressing SPANX-B, recognized unique SPANX-B-specific insert of SPANX-B (encoded in Pep-G1 and Pep-2 peptides), ELISA assay on plates coated with various peptides that are depicted in FIG. 1C. […] FIG. 1D is a digital image showing the expression of SPANX-B protein evaluated by Western blotting with ANEA-I0117 Ab (1:5000) in lysates of cell lines, such as HEK293 (HEK), Jurkat, CRL 7002, UACC1273, 938 Mel, CCRF-CEM (CEM), and normal human donor PBMC (upper panel). The blot was stripped and hybridized with anti-actin antibody (lower panel). FIGS. 1E and 1F are digital images obtained from an immunohistochemistry and immunofluorescent assay, respectively, of melanoma (UACC1273) and ovarian carcinoma (2008 and OVCAR3) cell lines. The cells were stained with ANEA-I0117 Ab (right and bottom panels in FIG. 1E and FIG. 1F, respectively); and control IgG (left and upper panels in FIG. 1E and FIG. 1F, respectively).
SPANX-B can be often found in the list of highly expressed genes in microarray study of human tumors, including hematological malignancies and breast cancer (see, for example, Minn et al., Nature 436(7050):518-24, 2005). To confirm this, expression was tested using two antibodies, a rabbit 3ANEA Ab and mouse SPANX-B Ab. […] The second SPANX-B Ab was produced from mice DNA immunized with SPANX-B-expressing plasmid. […] In contrast, it reacted with a second peptide Pep-2 that only represented unique for SPANX-B insert of Pep-G1 (FIGS. 1B and C).

SPANX-B = assay: DNA immunization of mice, serum ELISA on peptide-coated plates; format: in vivo; settings: plates coated with peptide 5 μg/ml; FIG. 7
Experimental: Mice were intradermally immunized twice with 25 μg plasmid DNA constructs including MIP-3α-SPANX-B. Sera were tested for SPANX-B antibodies by ELISA assay in 96-well plates coated with the indicated peptides (5 μg/ml). […] The other was near the N-terminus, encoded by Pep-G1 (SEQ ID NO: 14) and Pep-2 (SEQ ID NO: 2) and Pep-3 (SEQ ID NO: 3).

## ALWFRNHFVFGGGTK (Synthetic peptide MOPC (9)) [control murine class II peptide, reference compound]
[1]
  IFNγ secretion by CD4+ T cell lines on stimulation with pulsed DCs: failed to respond

## ANEANEANKTMPETPTGDSDP (Synthetic peptide Pep-G2)
[2]
  recognition of peptide by mouse SPANX-B Ab (ELISA): but not other region-specific peptides
[1]
  IFNγ secretion by CD4+ T cell lines on stimulation with pulsed DCs: failed to respond

## ENRINPDQMEEEEFIEITTERPKK (Synthetic peptide Pep-8)
SPANX-B
  B cell epitope recognized by sera of immunized mice (ELISA): Immunodominant B cell epitopes

## GQQSSVRRL (Synthetic peptide Pep-3)
[2]
  recognition of peptide by mouse SPANX-B Ab (ELISA): but not other region-specific peptides
SPANX-B
  B cell epitope recognized by sera of immunized mice (ELISA): Immunodominant B cell epitopes

## KRSVPCESNEANEANEANKTM (Synthetic peptide Pep-G1)
[2]
  recognition of peptide by mouse SPANX-B Ab (ELISA): preferentially recognized
SPANX-B
  B cell epitope recognized by sera of immunized mice (ELISA): Immunodominant B cell epitopes
[1]
  IFNγ secretion by CD4+ T cell lines on stimulation with pulsed DCs: activated the CD4^+ T cell lines to secrete IFNγ
  IFNγ secretion by SPANX-B-specific CD4+ T cell line: can be also activated to secrete IFNγ
  generation of SPANX-B-specific CD4+ T cell lines using the peptide: readily generated

## KRTSPEELVNDHARENRINPDQME (Synthetic peptide Pep-7)
SPANX-B
  B cell epitope recognized by sera of immunized mice (ELISA): Immunodominant B cell epitopes

## QPAPKKMKTSESSTILVVRYRRNV (Synthetic peptide Pep-6)
[2]
  recognition of peptide by mouse SPANX-B Ab (ELISA): but not other region-specific peptides
[1]
  IFNγ secretion by CD4+ T cell lines on stimulation with pulsed DCs: failed to respond

## RSAPCASAEVNE (Synthetic peptide Pep-9 Mod) [Pep-9-Mod, reference compound]
[1]; autologous DCs pulsed with peptide, lines generated to SPANX-B protein, Pep-1 or Pep-G1, FIG. 3D
  IFNγ secretion by SPANX-B-specific CD4+ T cell lines, fine mapping of the epitope: did not respond

## RSVPCESNEVNETMPETPTGDSDP (Synthetic peptide Pep-5)
[2]
  recognition of peptide by mouse SPANX-B Ab (ELISA): failed to recognize
[1]
  IFNγ secretion by CD4+ T cell lines on stimulation with pulsed DCs: activated the CD4^+ T cell lines to secrete IFNγ
  IFNγ secretion by SPANX-B-specific CD4+ T cell line: can be also activated to secrete IFNγ
  generation of SPANX-B-specific CD4+ T cell lines using the peptide: readily generated
